Reference: ChEMBL document CHEMBL3992569, “Opioid Receptor Activity and Analgesic Potency of DPDPE Peptide Analogues Containing a Xylene Bridge” (ACS Med Chem Lett, 2017)
The source made the active and inactive calls. No cut-off for these calls is given here.

Key:
Mus musculus [1] = assay: Antinociceptive activity in CD-1 mouse model of thermal-induced nociception assessed as increase in latency to respond with hind paw lick or jumping at 23 nmol/mouse, icv measured 45 mins post dose by hot plate test; assay type: functional
Mus musculus [2] = assay: Antinociceptive activity in CD-1 mouse model of thermal-induced nociception assessed as increase in latency to tail withdrawal at 23 nmol/mouse, icv measured 45 mins post dose by tail flick test; assay type: functional
Mus musculus [3] = assay: Analgesic activity in CD-1 mouse model of formalin-induced pain assessed as increase in latency to respond with hind paw lick or biting at 150 nmol/mouse, sc administered 15 mins prior to formalin injection measured up to 40 mins post dose; assay type: functional, organism-based
Mus musculus [4] = assay: Antinociceptive activity in CD-1 mouse model of thermal-induced nociception assessed as increase in latency to respond with hind paw lick or jumping at 23 nmol/mouse, icv measured 15 to 60 mins post dose by hot plate test relative to control; assay type: functional
Mus musculus [5] = assay: Antinociceptive activity in CD-1 mouse model of thermal-induced nociception assessed as increase in latency to tail withdrawal at 23 nmol/mouse, icv measured 15 to 60 mins post dose by tail flick test relative to control; assay type: functional

| Structure (SMILES) | Activity (Mus musculus [1]) | Activity (Mus musculus [2]) | Activity (Mus musculus [3]) | MPE (Mus musculus [4]) [%] | MPE (Mus musculus [5]) [%] |
| --- | --- | --- | --- | --- | --- |
| CC1(C)SSC(C)(C)[C@@H](NC(=O)[C@@H](N)Cc2ccc(O)cc2)C(=O)NCC(=O)N[C@@H](Cc2ccccc2)C(=O)N[C@H]1C(=O)O | Active | Active | inactive | – | – |
| CC1(C)SCc2cccc(c2)CSC(C)(C)[C@@H](NC(=O)[C@@H](N)Cc2ccc(O)cc2)C(=O)NCC(=O)N[C@@H](Cc2ccccc2)C(=O)N[C@H]1C(=O)O.O=C(O)C(F)(F)F | – | – | Active | >60 | >60 |
